{
  "source": "patent US20090227606A1",
  "about": "“Methods for Preventing or Treating Acute and Chronic Pain” (priority 2006, published 2009)",
  "key": {"[1]": {"test_system": "L5 spinal nerve transection", "details": "systemically or intrathecally administered; Sweitzer et al. 2001; cited from earlier work"}, "GLT-1 mRNA": {"test_system": "GLT-1 mRNA", "test": "Real Time RT-PCR of cultured astrocytes, GLT-1 mRNA", "format": "cell-based, rat", "procedure": "After approximately 14 days (2 days after subplating into plates, DIV 14) astrocytes had formed a confluent monolayer. […] Phase contrast microscopy was then carried out in order to assess the morphology of cells after the various treatments. Length of astrocyte processes was quantified by measuring all processes in 2-3 phase contrast images/group by an independent observer, blinded to the treatment groups using Image J v1.34s (National Institutes of Health, Bethesda, Md.).\nTotal RNA was isolated from astrocyte cultures using the Qiagen RNeasy mini-kit (Qiagen Inc., Valencia, Calif.) according to the manufacturer's protocol for isolation of total RNA from animal cells. Reverse transcription (RT) was carried out using the high-capacity cDNA archive kit (Applied Biosystems, Foster City, Calif.) according to the vendor's protocol. Real-time RT-PCR reactions were carried out in a total reaction volume of 25 μL containing a final concentration of 1.5 U Platinum Taq DNA polymerase (Invitrogen Corporation, Carlsbad, Calif.); 20 mM Tris HCl (pH 8.4); 50 mM KCl; 3 mM MgCl2; 200 μM dGTP, dCTP, and dATP; 400 μM dUTP and 1 U of UDG (uracyl DNA glycosylase); 900 nM of forward and reverse primers; 300 nM Taqman probe; and 5 μL of cDNA (50 ng) from the RT step. The iCycler™ Multicolor Real-Time PCR detection system (Bio-Rad Laboratories, Hercules, Calif.) was used to quantify PCR product. The fluorescence and threshold values (CT) obtained were used to compare the relative amount of target mRNA in experimental groups to those of controls using the 2^−ΔΔC^T method (Livak, K. J. and T. D. Schmittgen. 2001. Methods 25:402-408). Each experiment was run twice and samples were run in duplicate. For each sample, the mean CT value for the control gene (GAPDH) was then subtracted from the mean CT value for the gene of interest (GLT-1, GLAST) to obtain a ΔCT value. The ΔCT values for the control group (untreated) were then averaged and subtracted from the ΔCT for the experimental groups to obtain the ΔΔCT. The relative fold change from control was then expressed by calculation of 2^−ΔΔC^T for each sample and the results are expressed as the group mean fold change±SEM."}, "GLT-1": {"test_system": "GLT-1", "test": "Western blot of ipsilateral lumbar spinal cord, GLT-1 protein", "format": "in vivo, rat", "details": "day 12 post-transection", "procedure": "Tissue was collected from 4-5 rats/group on postoperative days 4 or 12. In order to obtain both mRNA and protein from the same tissue sample, the L5 region of the spinal cord (ipsilateral to the injury), was isolated and placed in PBS supplemented with protease inhibitor cocktail (1:1000, Sigma Chemical Co., St. Louis, Mo.) and RNase inhibitor (0.75 U/μL Ambion, Austin, Tex.). Samples were sonicated in five one-second bursts at half-maximal power, centrifuged at 6500 rpm for 15 minutes at 4° C. Protein-containing supernatants were collected and stored at −80° C. until further processing by Western blot analysis. The pellet was treated with TRIzol reagent (Invitrogen, Carlsbad, Calif.) for the extraction of total RNA according to the manufacturer's specifications.\nProtein obtained from L5 lumbar spinal cord was quantified using the Lowry method (DC assay, Bio-Rad, Hercules, Calif.). Forty micrograms of protein and standard protein markers were subjected to SDS polyacrylamide gel electrophoresis (7.5% gel, Bio-Rad, Hercules, Calif.) and id transferred to polyvinylidene difluoride (PVDF, Bio-Rad, Hercules, Calif.) filters. Nonspecific binding was blocked by incubation with 5% milk/PBS-T at room temperature for 1 hour followed by incubation overnight at 4° C. with monoclonal guinea pig anti-GLT-1 or guinea pig anti-GLAST (1:2500, Chemicon). […]"}},
  "note": "“Also recorded” adds a separate entry of the source.",
  "data": [
    {"molecule": "CCCn1cnc2c1c(=O)n(CCCCC(C)=O)c(=O)n2C", "note": "[propentofylline]", "values": [
      {"measurement": "mechanical allodynia induced by L5 spinal nerve transection", "setting": "[1]", "result": "exhibits anti-allodynic properties; also recorded: attenuated mechanical allodynia"},
      {"measurement": "increase in GLT-1 mRNA", "setting": "GLT-1 mRNA; day 3, high dose", "result": 3, "unit": "fold"},
      {"measurement": "induction of GLT-1 mRNA", "setting": "GLT-1 mRNA; day 7, high dose", "result": 20, "unit": "fold"},
      {"measurement": "GLT-1 mRNA level, in words", "setting": "GLT-1 mRNA; propentofylline 10, 100, 1000 μM, db-cAMP 250 μM, relative to GAPDH", "result": "enhancement of GLT-1 and GLAST mRNA levels in a dose-dependent manner; also recorded: dose-dependently induced GLT-1 and GLAST at the mRNA level"},
      {"measurement": "GLT-1 protein compared to L5 transection alone", "setting": "GLT-1", "result": "reversed with propentofylline treatment; also recorded: significantly elevated"}
    ]}
  ]
}
